Where “and” joins values, the source holds several entries; their conditions need not be identical. Equal entries are not always repeated. Where two headings read alike, the source gives them in different places.
Assays:
rats = experiment: Antagonistic effect to biochemical disturbances during the post-oligemic period in rats; assay type: in vivo, rat
Procedure: Oligemia in rats is caused by simultaneous bilateral occlusion of the carotid arteries associated with a slight decrease (8-9 kPa) of blood pressure and is maintained for 60 minutes. After removal of the occlusion, the post-oligemic period is followed for several days. In this case, the observation is continued up to the third day, at the time during which the brain accumulation of Ca^++ ions reaches the maximum.
The substances YS 035 or Nicardipine respectively, are administered to rats, 1, 5, 18, 24, 42 and 71 hours after having removed the carotid occlusion. The rats are sacrificed after 72 hours and the tissues are rapidly removed in order to determine their content of water, calcium and potassium.

aorta of rabbits = experiment: Antagonistic activity on the contractions produced by arachidonic acid on the aorta of rabbits, study in vitro; set-up: species or system rabbit; conditions: for inhibition at 1 mg/kg: dose 1.0 mg·Kg^-1
Procedure: The study has been carried out by comparison with Nicardipine using autologous blood as the perfusion liquid. The addition of 0.1 mg of arachidonate to the liquid induces an isometric contraction of the aorta which is registered by a transducer. […] This phenomenon is shown by the relaxation which follows the addition of arachidonate to the perfusion blood. This effect may be noted with 0.1 mg/kg of YS 035 and 1 mg/kg of Nicardipine.

portions of the aorta = experiment: Contraction of aorta portions by arachidonic acid after oral administration to rabbits (studies in vivo); set-up: species or system rabbit
Procedure: Both substances YS 035 and Nicardipine have been administered orally for a period of three consecutive days to rabbits in such a manner that the last administration of each substance was carried out one hour prior to killing the animals. The portions of the aorta had then been incubated either in PRP as well as in the Krebs-Henseleit liquid.

[1] = test system: kidney cells in newborn hamsters; experiment: Inhibition of Ca2+-uptake in kidney cells in newborn hamsters; assay type: cell-based, hamster
Procedure: Cells of kidneys of newborn hamsters have been washed and then resuspended several times in concentration of 5·10^6 /cc in the medium of the following composition:
After 15 minutes of preincubation at 30° C., the reaction was made to begin by addition to the medium of ^45 CaCl2 1 mM (0.1μCi/cc). The concentrations at 0 period of time were the concentrations determined two minutes after the addition. The other controls were carried out after 5 minutes, 10 minutes, and 20 minutes. The determination of [Ca^2+ ] was carried out as in the preceding experiment.

[2] = test system: mitochondria of liver of rats; experiment: Inhibition of Ca2+-uptake in mitochondria of liver of rats; assay type: biochemical, rat; conditions: 250 μM; 20° C.; control 14.3
Procedure: The mitochondria prepared according to classical methods are diluted to a concentration of 1.5 mg/cc in a medium of incubation which has the following composition:
After a period of 15 minutes of preincubation at 20° C. there was added ^45 CaCl2 (50 n mol/mg prot.).
In a manner analogous to the preceding experiments, the concentrations determined after two minutes were called the concentration at 0 period of time. The other controls were determined after 5 minutes, after 10 minutes and after 15 minutes. For the determination of Ca^2+, the experiment was carried out in a manner analogous to the preceding experiments.
The results are reported in Table 3 as the quantity of Ca transferred per mg of protein

calcium ion flows = conditions: cited from earlier work
phosphodiesterase = experiment: Inhibition of the phosphodiesterase activity (method of K. G. Nair); assay type: biochemical; conditions: read-out: ID50 (inhibiting dose 50%); up to 10 mM
Procedure: The inhibition of phosphodiesterase activity of YS 035 and of papaverine has been assessed according to the method of K. G. Nair (Biochemistry, 5, 150, 1966).
It has been used a medium containing:
2.5 ml of buffer tris-HCl 0.1M pH 7.4;
50 μl CAMP "Sigma" (1 mg/ml);
5 μl Adenosin deaminase (2 mg/ml);
20 μl of alkaline phosphatase "Sigma" (2.6 mg/ml);
15 μl of phosphodiesterase (10 mg/ml).
YS 035 has been added up to a final concentration of 100 mM and Papaverine to a concentration of 10 mM.

[3] = test system: synaptosomes of the brain of rats; experiment: Inhibition of the Ca2+-uptake in synaptosomes of the brain of rats; assay type: biochemical, rat; conditions: 250 μM
Procedure: The synaptosomes have been prepared from an homogenate of the brain of rats by centrifugation in the gradient of Filcoll at 23,500 rpm for a period of 30 minutes and diluted to 1.5 mg/cc in the medium constituted by:
After 15 minutes of preincubation, ^45 CaCl2, final concentration 1 mM (0.2μCi/cc is added to the medium).
The first determination has been carried out two minutes after the addition. […] After each period, the reaction has been stopped by centrifugation and the radioactivity has been determined in the supernatant as well as in the pellet. The latter had been denatured previously with PCA, neutralized and subsequently centrifuged.

[4] = test system: isolated guinea-pig atria; conditions: papaverine with verapamil; cited from earlier work
phosphodiesterases = conditions: cited from earlier work

## COC(=O)C1=C(C)NC(C)=C(C(=O)OCCN(C)Cc2ccccc2)C1c1cccc([N+](=O)[O-])c1 (centres unmarked) [Nicardipine, reference compound]
rats; 3 mg·Kg^-1 P.O. 7×, 72 h, post-oligemic controls 28.2 ± 3.22
  Cerebral concentration, Ca++: 19.3 ± 4.92 mmol·Kg^-1 of dry substance
rats; 3 mg·Kg^-1 P.O. 7×, 72 h, post-oligemic controls 80.1 ± 0.37
  Cerebral concentration, H2O: 79.2 ± 0.42%
rats; 3 mg·Kg^-1 P.O. 7×, 72 h, post-oligemic controls 366.2 ± 12.58
  Cerebral concentration, K+: 368.5 ± 19.69 mmol·Kg^-1 of dry substance
rats; rat, in vivo
  intracellular accumulation of Ca++ ions (in words): much less significant
Aorta of rabbits; N = 4
  Contraction of the first portion of the aorta: 38 ± 4.9 mm
Aorta of rabbits; Oryctolagus cuniculus, dose 0.01 mg·Kg^-1, read-out: Contraction of the second and third portion of the aorta, % Variation
  inhibition at 0.01 mg/kg: 6%
Aorta of rabbits; Oryctolagus cuniculus, dose 0.1 mg·Kg^-1, read-out: Contraction of the second and third portion of the aorta, % Variation
  inhibition at 0.1 mg/kg: 48 ± 15.5%
Aorta of rabbits; Oryctolagus cuniculus, read-out: Contraction of the second and third portion of the aorta, % Variation
  inhibition at 1 mg/kg: 162%
Aorta of rabbits; Oryctolagus cuniculus, second and third portion, read-out: % Variation, small contractions observed occasionally prior to relaxation (value in brackets)
  inhibition at 1 mg/kg: 84%
Aorta of rabbits; Oryctolagus cuniculus, autologous blood perfusion, 0.1 mg arachidonate, read-out: dose at which relaxation following the addition of arachidonate is noted
  minimal effective dose: 1 mg/kg
Aorta of rabbits; YS 035 compared with Nicardipine
  inhibitory effect on the contraction produced by the arachidonate (in words): comparable
Portions of the aorta; 1 mg·Kg^-1 P.O., Krebs, controls 12 ± 2.3
  Amplitude of contraction, medium Krebs, individual values: -30 mm and -10 mm
Portions of the aorta; 1 mg·Kg^-1 P.O., PRP, controls 30 ± 8.0
  Amplitude of contraction, PRP, individual values: +24 mm and +55 mm
Portions of the aorta; aortic endothelial level, particularly PGI2
  site of action (in words): act directly on the synthesis of prostaglandin

## COC(=O)C1=C(C)NC(C)=C(C(=O)OC)C1c1ccccc1[N+](=O)[O-] [Nifedipine, reference compound]
[1]; 250 μM, 30° C., control 11.9
  Ca2+-uptake: 7.9 n g ions/mg prot/15'
[1]; Mesocricetus auratus, 0.25 h, 15 min
  percent change in Ca2+-uptake versus control at 250 µM: -33.6%
[2]
  Ca2+-uptake: 9.5 n g ions/mg prot.

## COc1ccc(Cc2nccc3cc(OC)c(OC)cc23)cc1OC [Papaverine]
Calcium ion flows; at the lower concentrations
  effect on calcium ion flows (in words): stimulation of calcium ion flows
Calcium ion flows
  concentration of antagonism on the calcium ion: about 10^-4 M
Calcium ion flows; conclusion from literature
  calcium antagonistic activity (in words): totally devoid of calcium antagonistic activity
phosphodiesterase
  IC50: 40 µM
[3]
  inhibitory activity on the calcium uptake (in words): completely devoid of calcium antagonistic activity
[3]; 45CaCl2 1 mM, control 80 ± 7
  Ca2+-uptake: 79 ± 5 n g ions/mg prot/15 min
[4]
  interaction on the slow entry flows sustained by calcium ions (in words): mutually antagonistic
phosphodiesterases
  main biochemical action (in words): inhibition of phosphodiesterases

## COc1ccc(CCN(C)CCCC(C#N)(c2ccc(OC)c(OC)c2)C(C)C)cc1OC (centres unmarked) [verapamil]
[4]
  interaction on the slow entry flows sustained by calcium ions (in words): mutually antagonistic

— US4956389A, “Compounds having calcium blocking activity” (priority 1982, dated 1990)
